Assay results published in patent US20260078130A1, “NAMPT MODULATORS, PREPARATIONS, AND USES THEREOF” (SIRONAX LTD., priority 2022, published 2026).
Read-outs that look alike come from different tables or passages of the source.

How the values were obtained:
[1] = target: T1, human enzyme NAMPT (full length) (Homo sapiens, UniProt P43490); assay: NMN fluorescence biochemical assay (stimulation of NMN synthesis by NAMPT); conditions: for EC50: concentration giving half-maximal activation, read-out: Enzymatic EC50; for Enzymatic Emax: fold change of maximal activation compared to DMSO
T1 construct: human enzyme NAMPT (full length)
T1 sequence (P43490 whole entry): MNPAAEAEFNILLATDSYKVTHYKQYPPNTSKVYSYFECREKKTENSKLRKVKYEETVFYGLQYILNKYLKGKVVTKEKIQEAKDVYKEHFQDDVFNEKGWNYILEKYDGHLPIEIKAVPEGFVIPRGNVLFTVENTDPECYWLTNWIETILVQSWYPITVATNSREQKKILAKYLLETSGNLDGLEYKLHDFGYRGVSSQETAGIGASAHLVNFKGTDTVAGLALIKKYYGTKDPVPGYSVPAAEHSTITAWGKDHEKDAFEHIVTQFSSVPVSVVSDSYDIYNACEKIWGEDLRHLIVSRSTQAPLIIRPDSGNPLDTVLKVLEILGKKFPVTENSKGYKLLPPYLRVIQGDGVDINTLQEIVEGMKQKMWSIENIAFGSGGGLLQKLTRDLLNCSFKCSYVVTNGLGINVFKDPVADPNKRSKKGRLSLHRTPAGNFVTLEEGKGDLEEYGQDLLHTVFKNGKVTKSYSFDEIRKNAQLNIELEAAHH
Method in brief: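 Full-length human NAMPT (100 nM) was preincubated 15 min at 37 °C with compound in 50 mM Tris-HCl pH 7.5, 10 mM MgCl2, 2 mM DTT, then reacted 1 h at 37 °C with 50 μM NAM, 100 μM PRPP, 4 mM ATP (stated solution concentrations). NMN was derivatised with acetophenone/KOH then formic acid and read at Ex/Em 382/445 nm; EC50 and Emax (fold over DMSO) reported.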

[2] = system: endogenous NAMPT in U2OS cells; assay: Cellular NAD+ modulation assay (NAD/NADH-Glo, U2OS cells); type: cell-based; conditions: Homo sapiens; for maximal fold induction: read-out: Cellular Emax
Description: Certain compounds described herein were also assayed for their ability to stimulate the endogenous NAMPT in a native cellular environment in a cellular NAD^+ modulation assay. U2OS cells were grown in McCoy's 5A medium with 10% fetal bovine serum, in a humidified incubator with an atmosphere of 95% air and 5% CO2 at 37° C. The assays were initiated by plating 30 μL of U2OS cells in a culture medium with 10% fetal bovine serum, at a density of 3000 cells per well in a Corning® 384-well White/Clear Bottom Polystyrene Microplate. The plates were incubated in 37T incubators for a period of 16 hours. Test compounds with a series of concentrations in DMSO were added to the plates in a volume of 150 nL using Echo Liquid handlers. The plates are then incubated for 24 hours. The medium was removed from the wells, then 10 μL PBS was added to each well. To each well of cells in 10 μL of PBS, 10 μL of base solution with 1% DTAB was added. The plate was briefly mixed on a plate shaker to ensure homogeneity and cell lysis (5 mins). 10p L of 0.4N HCl was added per well. The plate was coved, and all samples were incubated for 15 minutes at 60° C. Then the plate was equilibrated for 10 minutes at room temperature. 10 μL of 0.5M Trizma® base was added to each well of acid-treated cells to neutralize the acid. Finally, 30 μL of NAD/NADH-Glo™ Detection Reagent was added. The plate was gently shaken to mix the samples. The plate was incubated for 40 minutes at room temperature. Luminescence was recorded using a luminometer. The potency measurements for the test compounds were quantified and represented as EC50 (concentration of a compound that gives half-maximal activation) and Emax (fold change of a compound's maximal activation compared to DMSO).

[3] = NMN fluorescence assay, purified human NAMPT 100 nM
[4] = 24 hours incubation, cellular NAD+
[5] = NMN synthesis by purified human NAMPT (100 nM)
[6] = 24 hours incubation with compound

| EC50 [1, 3] | Enzymatic Emax [1] | EC50 [2, 4] | EC50 [1, 5] | EC50 [2, 6] | Compound | maximal fold induction [2, 4] | maximal fold induction [2, 6] |
| --- | --- | --- | --- | --- | --- | --- | --- |
| 0.5 to 5 µM | B (3≥B>2) | 0.5 to 5 µM |  |  | Cn1ncc(Cl)c1CC1c2cc(C3COC3)ccc2C(=O)N1CC1CC2(CNC(=O)O2)C1 (centres unmarked) [Compound 473, 2-((3-((4-chloro-1-methyl-1H-pyrazol-5-yl)methyl)-5-(oxetan-3-yl)-1-oxoisoindolin-2-yl)methyl)-5-oxa-7-azaspiro[3.4]octan-6-one] | > 1.5 |  |
| < 0.5 µM | B (3≥B>2) | 0.5 to 5 µM |  |  | O=C1c2ccccc2C(Cc2nn(C3CNC3)cc2Cl)N1Cc1ccc2[nH]nnc2c1 (centres unmarked) [Compound 413, 2-((1H-benzo[d][1,2,3]triazol-5-yl)methyl)-3-((1-(azetidin-3-yl)-4-chloro-1H-pyrazol-3-yl)methyl)isoindolin-1-one] | > 1.5 |  |
| ≥ 5 µM | B (3≥B>2) | 5 to 50 µM |  |  | O=C1NC(=O)C2(CC(CN3C(=O)c4ccccc4C3Cc3ncccc3Br)C2)O1 (centres unmarked) [Compound 476, 2-((1-((3-bromopyridin-2-yl)methyl)-3-oxoisoindolin-2-yl)methyl)-5-oxa-7-azaspiro[3.4]octane-6,8-dione] | > 1.5 |  |
| < 0.5 µM | B (3≥B>2) | < 0.5 µM |  |  | C/C(=C\c1c[nH]nn1)CN1C(=O)c2ccccc2C1Cc1ncccc1Br (centres unmarked) [Compound 416, (E)-3-((3-bromopyridin-2-yl)methyl)-2-(2-methyl-3-(1H-1,2,3-triazol-4-yl)allyl)isoindolin-1-one] | > 1.5 |  |
| 0.5 to 5 µM | B (3≥B>2) | < 0.5 µM |  |  | Cn1ncc(Cl)c1CC1c2cc(N3CCOCC3)ccc2C(=O)N1CC1CC2(CNC(=O)O2)C1 (centres unmarked) [Compound 463, 2-((3-((4-chloro-1-methyl-1H-pyrazol-5-yl)methyl)-5-morpholino-1-oxoisoindolin-2-yl)methyl)-5-oxa-7-azaspiro[3.4]octan-6-one] | > 1.5 |  |
| 0.5 to 5 µM | B (3≥B>2) | 0.5 to 5 µM |  |  | Cc1nc(O)sc1CN1C(=O)c2ccccc2C1Cc1c(Cl)cnn1C (centres unmarked) [Compound 635, 3-((4-chloro-1-methyl-1H-pyrazol-5-yl)methyl)-2-((2-hydroxy-4-methylthiazol-5-yl)methyl)isoindolin-1-one] | > 1.5 |  |
| ≥ 5 µM | B (3≥B>2) | 0.5 to 5 µM |  |  | Cn1ncc(Cl)c1CC1c2ccccc2C(=O)N1C/C(F)=C\c1c[nH]nn1 (centres unmarked) [Compound 515, (E)-3-((4-chloro-1-methyl-1H-pyrazol-5-yl)methyl)-2-(2-fluoro-3-(1H-1,2,3-triazol-4-yl)allyl)isoindolin-1-one] | > 1.5 |  |
| 0.5 to 5 µM | B (3≥B>2) | < 0.5 µM |  |  | CCn1ncc(Cl)c1CC1c2ccccc2C(=O)N1CC1CC2(CNC(=O)O2)C1 (centres unmarked) [Compound 465, 2-((1-((4-chloro-1-ethyl-1H-pyrazol-5-yl)methyl)-3-oxoisoindolin-2-yl)methyl)-5-oxa-7-azaspiro[3.4]octan-6-one] | > 1.5 |  |
| 0.5 to 5 µM | B (3≥B>2) | < 0.5 µM |  |  | O=C1NCC2(CC(CN3C(=O)c4ccccc4C3Cc3nnn(C4CC4)c3Cl)C2)O1 (centres unmarked) [Compound 471, 2-((1-((5-chloro-1-cyclopropyl-1H-1,2,3-triazol-4-yl)methyl)-3-oxoisoindolin-2-yl)methyl)-5-oxa-7-azaspiro[3.4]octan-6-one] | > 1.5 |  |
| ≥ 5 µM | B (3≥B>2) | 0.5 to 5 µM |  |  | COc1ncc(CN2C(=O)c3ccccc3C2Cc2c(Cl)cnn2C)s1 (centres unmarked) [Compound 591, 3-((4-chloro-1-methyl-1H-pyrazol-5-yl)methyl)-2-((2-methoxythiazol-5-yl)methyl)isoindolin-1-one] | 1.2 to 1.5 |  |

The remaining lines, values behind:

| Compound | EC50 [1, 3] | Enzymatic Emax [1] | EC50 [2, 4] | EC50 [1, 5] | EC50 [2, 6] | maximal fold induction [2, 4] | maximal fold induction [2, 6] |
| --- | --- | --- | --- | --- | --- | --- | --- |
| CC1c2cc(-c3cnco3)ccc2C(=O)N1Cc1ccc2[nH]c(=O)oc2c1 (single isomer, unassigned) [Compound 162] |  | B (3≥B>2) |  | 0.5 to 5 µM | 5 to 50 µM |  | > 1.5 |
| O=C1c2ccccc2C(Cc2nn(C3COC3)cc2Cl)N1Cc1ccc2[nH]nnc2c1 (centres unmarked) [Compound 318, 2-((1H-benzo[d][1,2,3]triazol-5-yl)methyl)-3-((4-chloro-1-(oxetan-3-yl)-1H-pyrazol-3-yl)methyl)isoindolin-1-one] |  | A (A>3) |  | < 0.5 µM | < 0.5 µM |  | > 1.5 |
| Cn1nc(C#N)c(CC2c3ccccc3C(=O)N2Cc2ccc3[nH]nnc3c2)c1Cl (centres unmarked) [Compound 352, 4-((2-((1H-benzo[d][1,2,3]triazol-5-yl)methyl)-3-oxoisoindolin-1-yl)methyl)-5-chloro-1-methyl-1H-pyrazole-3-carbonitrile] | < 0.5 µM | A (A>3) | < 0.5 µM |  |  | > 1.5 |  |
| Cc1ccc2c(c1)C(=O)N(Cc1ccc3[nH]nnc3c1)C2=O [Compound 37, 2-((1H-benzo[d][1,2,3]triazol-5-yl)methyl)-5-methylisoindoline-1,3-dione] |  | A (A>3) |  | ≥ 5 µM | 0.5 to 5 µM |  | ≤ 1.2 |
| N#Cc1ccccc1CC1c2ccccc2C(=O)N1Cc1ccc2[nH]c(=O)oc2c1 (centres unmarked) [Compound 147, 2-((3-oxo-2-((2-oxo-2,3-dihydrobenzo[d]oxazol-6-yl)methyl)isoindolin-1-yl)methyl) benzonitrile] |  | A (A>3) |  | < 0.5 µM | < 0.5 µM |  | > 1.5 |
| Cc1ccnc(CC2c3ccccc3C(=O)N2Cc2ccc3[nH]c(=O)oc3c2)c1 (centres unmarked) [Compound 156, 6-((1-((4-methylpyridin-2-yl)methyl)-3-oxoisoindolin-2-yl)methyl)benzo[d]oxazol-2(3H)-one] |  | A (A>3) |  | ≥ 5 µM | 0.5 to 5 µM |  | > 1.5 |
| O=C1c2ccccc2C(Cc2ncccc2Br)N1CCCc1c[nH]nn1 (centres unmarked) [Compound 347, 2-(3-(1H-1,2,3-triazol-4-yl)propyl)-3-((3-bromopyridin-2-yl)methyl)isoindolin-1-one] | 0.5 to 5 µM | A (A>3) | 0.5 to 5 µM |  |  | > 1.5 |  |
| O=C1c2c(Br)cccc2CN1Cc1ccc(O)cc1 [Compound 29, 7-bromo-2-(4-hydroxybenzyl)isoindolin-1-one] |  | A (A>3) |  | 0.5 to 5 µM | 5 to 50 µM |  | > 1.5 |
| COCCn1cc(Cl)c(CC2c3ccccc3C(=O)N2Cc2ccc3[nH]c(=O)oc3c2)n1 (centres unmarked) [Compound 277, 6-((1-((4-chloro-1-(2-methoxyethyl)-1H-pyrazol-3-yl)methyl)-3-oxoisoindolin-2-yl)methyl) benzo[d]oxazol-2(3H)-one] |  | A (A>3) |  | 0.5 to 5 µM | < 0.5 µM |  | > 1.5 |
| O=C1c2ccccc2C(C2CC2)N1Cc1ccc2[nH]c(=O)oc2c1 (centres unmarked) [Compound 72, 6-((1-cyclopropyl-3-oxoisoindolin-2-yl)methyl)benzo[d]oxazol-2(3H)-one] |  | A (A>3) |  | ≥ 5 µM | 0.5 to 5 µM |  | > 1.5 |
| Cc1ccccc1CC1c2ncccc2C(=O)N1Cc1ccc2[nH]c(=O)oc2c1 (centres unmarked) [Compound 151, 6-((7-(2-methylbenzyl)-5-oxo-5,7-dihydro-6H-pyrrolo[3,4-b]pyridin-6-yl)methyl)benzo[d]oxazol-2(3H)-one] |  | A (A>3) |  | ≥ 5 µM | 0.5 to 5 µM |  | > 1.5 |
| Cc1ncnc(C#N)c1CC1c2ccccc2C(=O)N1Cc1ccc2[nH]nnc2c1 (centres unmarked) [Compound 384, 5-((2-((1H-benzo[d][1,2,3]triazol-5-yl)methyl)-3-oxoisoindolin-1-yl)methyl)-6-methylpyrimidine-4-carbonitrile] | < 0.5 µM | B (3≥B>2) | < 0.5 µM |  |  | > 1.5 |  |
| N#Cc1ccccc1CC1c2ccccc2C(=O)N1Cc1ccc(O)cc1 (centres unmarked) [Compound 169, 2-((2-(4-hydroxybenzyl)-3-oxoisoindolin-1-yl)methyl)benzonitrile] |  | B (3≥B>2) |  | < 0.5 µM | < 0.5 µM |  | > 1.5 |
